ChEMBL document CHEMBL3352328, “Synthesis and biological evaluation of a new series of N-acyldiamines as potential antibacterial and antifungal agents” (2014)
Values after ≈ are worked out from the molar mass of the structure shown. Active and inactive are the calls of the source. No cut-off for these calls is given here.

Legend:
Candida albicans = assay: Antifungal activity against Candida albicans ATCC 18804 by broth microdilution method; assay type: functional
Candida tropicalis = assay: Antifungal activity against Candida tropicalis ATCC 750 by broth microdilution method; assay type: functional
Nakaseomyces glabratus = assay: Antifungal activity against Candida glabrata ATCC 90030 by broth microdilution method; assay type: functional
Candida parapsilosis = assay: Antifungal activity against Candida parapsilosis ATCC 22019 by broth microdilution method; assay type: functional; conditions: Lodderomyces parapsilosis
Staphylococcus aureus [1] = assay: Antimicrobial activity against Staphylococcus aureus ATCC 29213 by broth dilution method; assay type: functional
[2] = test system: Staphylococcus epidermidis; assay: Antimicrobial activity against Staphylococcus epidermidis ATCC 12228 by broth dilution method; assay type: functional
Escherichia coli [3] = assay: Antimicrobial activity against Escherichia coli ATCC 11229 by broth dilution method; assay type: functional
Pseudomonas aeruginosa [4] = assay: Antimicrobial activity against Pseudomonas aeruginosa ATCC 27853 by broth dilution method; assay type: functional
[5] = test system: Staphylococcus epidermidis; assay: Bactericidal activity against Staphylococcus epidermidis ATCC 12228 after 24 hrs; assay type: functional; conditions: ATCC 12228, 24 h
Escherichia coli [6] = assay: Bacteriostatic activity against Escherichia coli ATCC 11229 after 24 hrs; assay type: functional, organism-based
Staphylococcus aureus [7] = assay: Bactericidal activity against methicillin-resistant Staphylococcus aureus clinical isolate 1 after 24 hrs; assay type: functional; conditions: isolate 1, 24 h
Staphylococcus aureus [8] = assay: Bactericidal activity against methicillin-resistant Staphylococcus aureus clinical isolate 2 after 24 hrs; assay type: functional; conditions: isolate 2, 24 h
Staphylococcus aureus [9] = assay: Bactericidal activity against methicillin-resistant Staphylococcus aureus clinical isolate 3 after 24 hrs; assay type: functional; conditions: isolate 3, 24 h
Staphylococcus aureus [10] = assay: Bactericidal activity against methicillin-resistant Staphylococcus aureus clinical isolate 4 after 24 hrs; assay type: functional; conditions: isolate 4, 24 h
Staphylococcus aureus [11] = assay: Bactericidal activity against methicillin-resistant Staphylococcus aureus clinical isolate 5 after 24 hrs; assay type: functional; conditions: isolate 5, 24 h
Staphylococcus aureus [12] = assay: Bactericidal activity against methicillin-resistant Staphylococcus aureus clinical isolate 6 after 24 hrs; assay type: functional; conditions: isolate 6, 24 h
Staphylococcus aureus [13] = assay: Bactericidal activity against methicillin-resistant Staphylococcus aureus clinical isolate 7 after 24 hrs; assay type: functional; conditions: isolate 7, 24 h
Staphylococcus aureus [14] = assay: Bactericidal activity against methicillin-resistant Staphylococcus aureus clinical isolate 8 after 24 hrs; assay type: functional; conditions: isolate 8, 24 h
Staphylococcus aureus [15] = assay: Bactericidal activity against methicillin-resistant Staphylococcus aureus clinical isolate 9 after 24 hrs; assay type: functional; conditions: isolate 9, 24 h
Staphylococcus aureus [16] = assay: Bactericidal activity against methicillin-resistant Staphylococcus aureus clinical isolate 10 after 24 hrs; assay type: functional; conditions: isolate 10, 24 h
Staphylococcus aureus [17] = assay: Bactericidal activity against methicillin-resistant Staphylococcus aureus clinical isolate 11 after 24 hrs; assay type: functional; conditions: isolate 11, 24 h
Staphylococcus aureus [18] = assay: Bactericidal activity against methicillin-resistant Staphylococcus aureus clinical isolate 12 after 24 hrs; assay type: functional; conditions: isolate 12, 24 h
Staphylococcus aureus [19] = assay: Bactericidal activity against methicillin-resistant Staphylococcus aureus clinical isolate 13 after 24 hrs; assay type: functional; conditions: isolate 13, 24 h
Staphylococcus aureus [20] = assay: Bactericidal activity against methicillin-resistant Staphylococcus aureus clinical isolate 14 after 24 hrs; assay type: functional; conditions: isolate 14, 24 h
Staphylococcus aureus [21] = assay: Bactericidal activity against methicillin-resistant Staphylococcus aureus clinical isolate 15 after 24 hrs; assay type: functional; conditions: isolate 15, 24 h
Staphylococcus aureus [22] = assay: Bactericidal activity against methicillin-resistant Staphylococcus aureus clinical isolate 16 after 24 hrs; assay type: functional; conditions: isolate 16, 24 h
Staphylococcus aureus [23] = assay: Bactericidal activity against methicillin-resistant Staphylococcus aureus clinical isolate 17 after 24 hrs; assay type: functional; conditions: isolate 17, 24 h
Staphylococcus aureus [24] = assay: Bactericidal activity against methicillin-resistant Staphylococcus aureus clinical isolate 18 after 24 hrs; assay type: functional; conditions: isolate 18, 24 h
Staphylococcus aureus [25] = assay: Bactericidal activity against methicillin-resistant Staphylococcus aureus clinical isolate 19 after 24 hrs; assay type: functional; conditions: isolate 19, 24 h
Staphylococcus aureus [26] = assay: Bactericidal activity against methicillin-resistant Staphylococcus aureus clinical isolate 20 after 24 hrs; assay type: functional; conditions: isolate 20, 24 h
Staphylococcus aureus [27] = assay: Bactericidal activity against methicillin-resistant Staphylococcus aureus clinical isolate 21 after 24 hrs; assay type: functional; conditions: isolate 21, 24 h
[28] = test system: Staphylococcus epidermidis; assay: Bacteriostatic activity against Staphylococcus epidermidis ATCC 12228 after 24 hrs; assay type: functional, organism-based
Staphylococcus aureus [29] = assay: Bactericidal activity against Staphylococcus aureus ATCC 29213 after 24 hrs; assay type: functional; conditions: ATCC 29213, 24 h
Pseudomonas aeruginosa [30] = assay: Bacteriostatic activity against Pseudomonas aeruginosa ATCC 27853 after 24 hrs; assay type: functional, organism-based
Staphylococcus aureus [31] = assay: Bactericidal activity against methicillin-resistant Staphylococcus aureus clinical isolate after 24 hrs; assay type: functional
Escherichia coli [32] = assay: Bactericidal activity against Escherichia coli ATCC 11229 after 24 hrs; assay type: functional; conditions: ATCC 11229, 24 h
Staphylococcus aureus [33] = assay: Bacteriostatic activity against Staphylococcus aureus ATCC 29213 after 24 hrs; assay type: functional, organism-based

SMILES	MIC (Candida albicans) [µg/mL]	MIC (Candida tropicalis) [µg/mL]	MIC (Nakaseomyces glabratus) [µg/mL]	MIC (Candida parapsilosis) [µg/mL]	MIC (Staphylococcus aureus [1]) [µg/mL]	MIC [2] [µg/mL]	MIC (Escherichia coli [3]) [µg/mL]	MIC (Pseudomonas aeruginosa [4]) [µg/mL]	MBC [5] [µg/mL]	Activity (Escherichia coli [6])	MBC (Staphylococcus aureus [8]) [µg/mL]	MBC (Staphylococcus aureus [9]) [µg/mL]	MBC (Staphylococcus aureus [10]) [µg/mL]	MBC (Staphylococcus aureus [11]) [µg/mL]	MBC (Staphylococcus aureus [12]) [µg/mL]	MBC (Staphylococcus aureus [16]) [µg/mL]	MBC (Staphylococcus aureus [20]) [µg/mL]	MBC (Staphylococcus aureus [21]) [µg/mL]	MBC (Staphylococcus aureus [23]) [µg/mL]	MBC (Staphylococcus aureus [24]) [µg/mL]	other results
CCC(C)n1ncn(-c2ccc(N3CCN(c4ccc(OCC5COC(Cn6cncn6)(c6ccc(Cl)cc6Cl)O5)cc4)CC3)cc2)c1=O (configuration not stated) [ITRACONAZOLE]	0.5 (≈ 0.709 µM)	> 512	256 (≈ 363 µM)	> 512	–	–	–	–	–	–	–	–	–	–	–	–	–	–	–	–	–
CCCCCCCCCCCCCCCC(=O)NCCCN	64 (≈ 205 µM)	16 (≈ 51.2 µM)	8 (≈ 25.6 µM)	8 (≈ 25.6 µM)	> 1020	4 (≈ 12.8 µM)	32 (≈ 102 µM)	> 1020	64 (≈ 205 µM)	Active	–	–	–	–	–	–	–	–	–	–	–
CN[C@H](CC(C)C)C(=O)N[C@H]1C(=O)N[C@@H](CC(N)=O)C(=O)N[C@H]2C(=O)N[C@H]3C(=O)N[C@H](C(=O)N[C@H](C(=O)O)c4cc(O)cc(O)c4-c4cc3ccc4O)[C@H](O)c3ccc(c(Cl)c3)Oc3cc2cc(c3O[C@@H]2O[C@H](CO)[C@@H](O)[C@H](O)[C@H]2O[C@H]2C[C@](C)(N)[C@H](O)[C@H](C)O2)Oc2ccc(cc2Cl)[C@H]1O [VANCOMYCIN]	–	–	–	–	–	–	–	–	–	–	1 (≈ 0.69 µM)	0.5 (≈ 0.345 µM)	1 (≈ 0.69 µM)	1 (≈ 0.69 µM)	1 (≈ 0.69 µM)	1 (≈ 0.69 µM)	1 (≈ 0.69 µM)	1 (≈ 0.69 µM)	0.5 (≈ 0.345 µM)	1 (≈ 0.69 µM)	MBC (Staphylococcus aureus [7]): 1 µg/mL (≈ 0.69 µM); MBC (Staphylococcus aureus [13]): 1 µg/mL (≈ 0.69 µM); MBC (Staphylococcus aureus [14]): 0.5 µg/mL (≈ 0.345 µM); MBC (Staphylococcus aureus [15]): 1 µg/mL (≈ 0.69 µM); MBC (Staphylococcus aureus [17]): 1 µg/mL (≈ 0.69 µM); MBC (Staphylococcus aureus [18]): 1 µg/mL (≈ 0.69 µM); MBC (Staphylococcus aureus [19]): 1 µg/mL (≈ 0.69 µM); MBC (Staphylococcus aureus [22]): 1 µg/mL (≈ 0.69 µM); MBC (Staphylococcus aureus [25]): 0.5 µg/mL (≈ 0.345 µM); MBC (Staphylococcus aureus [26]): 0.5 µg/mL (≈ 0.345 µM); MBC (Staphylococcus aureus [27]): 0.5 µg/mL (≈ 0.345 µM)
CCCCCCCC/C=C\CCCCCCCC(=O)NCCN	128 (≈ 394 µM)	128 (≈ 394 µM)	64 (≈ 197 µM)	128 (≈ 394 µM)	> 1020	8 (≈ 24.6 µM)	> 1020	> 1020	–	–	–	–	–	–	–	–	–	–	–	–	Activity [28]: Active
CCCCCCCCCCCCCC(=O)NCCN	4 (≈ 14.8 µM)	16 (≈ 59.2 µM)	16 (≈ 59.2 µM)	32 (≈ 118 µM)	8 (≈ 29.6 µM)	16 (≈ 59.2 µM)	64 (≈ 237 µM)	1020 (≈ 3790 µM)	–	Active	512 (≈ 1890 µM)	512 (≈ 1890 µM)	512 (≈ 1890 µM)	512 (≈ 1890 µM)	512 (≈ 1890 µM)	512 (≈ 1890 µM)	128 (≈ 473 µM)	64 (≈ 237 µM)	128 (≈ 473 µM)	128 (≈ 473 µM)	MBC (Staphylococcus aureus [29]): 128 µg/mL (≈ 473 µM); Activity [28]: Active; Activity (Pseudomonas aeruginosa [30]): Active; MBC (Staphylococcus aureus [27]): 128 µg/mL (≈ 473 µM); MIC50 (Staphylococcus aureus [31]): 32 µg/mL (≈ 118 µM); MIC90 (Staphylococcus aureus [31]): 256 µg/mL (≈ 947 µM)
CCCCCCCCCCCCCCCC(=O)NCCCCN	8 (≈ 24.5 µM)	64 (≈ 196 µM)	32 (≈ 98 µM)	128 (≈ 392 µM)	512 (≈ 1570 µM)	16 (≈ 49 µM)	1020 (≈ 3140 µM)	> 1020	128 (≈ 392 µM)	–	–	–	–	–	–	–	–	–	–	–	MBC (Escherichia coli [32]): 1020 µg/mL (≈ 3140 µM); Activity (Staphylococcus aureus [33]): Active
CCCCCCCC/C=C\CCCCCCCC(=O)NCCCN	2 (≈ 5.91 µM)	4 (≈ 11.8 µM)	4 (≈ 11.8 µM)	4 (≈ 11.8 µM)	2 (≈ 5.91 µM)	1 (≈ 2.95 µM)	4 (≈ 11.8 µM)	> 1020	16 (≈ 47.3 µM)	Active	16 (≈ 47.3 µM)	16 (≈ 47.3 µM)	512 (≈ 1510 µM)	16 (≈ 47.3 µM)	64 (≈ 189 µM)	8 (≈ 23.6 µM)	1020 (≈ 3020 µM)	16 (≈ 47.3 µM)	16 (≈ 47.3 µM)	8 (≈ 23.6 µM)	MBC (Staphylococcus aureus [29]): 128 µg/mL (≈ 378 µM); MBC (Staphylococcus aureus [7]): 16 µg/mL (≈ 47.3 µM); MBC (Staphylococcus aureus [13]): 16 µg/mL (≈ 47.3 µM); MBC (Staphylococcus aureus [14]): 16 µg/mL (≈ 47.3 µM); MBC (Staphylococcus aureus [15]): 16 µg/mL (≈ 47.3 µM); MBC (Staphylococcus aureus [17]): 16 µg/mL (≈ 47.3 µM); MBC (Staphylococcus aureus [18]): 16 µg/mL (≈ 47.3 µM); MBC (Staphylococcus aureus [19]): 64 µg/mL (≈ 189 µM); MBC (Staphylococcus aureus [22]): 8 µg/mL (≈ 23.6 µM); MBC (Staphylococcus aureus [25]): 4 µg/mL (≈ 11.8 µM); MBC (Staphylococcus aureus [26]): 1020 µg/mL (≈ 3020 µM); MBC (Staphylococcus aureus [27]): 512 µg/mL (≈ 1510 µM); MIC50 (Staphylococcus aureus [31]): 16 µg/mL (≈ 47.3 µM); MIC90 (Staphylococcus aureus [31]): 512 µg/mL (≈ 1510 µM)
CCCCCCCCCCCCCCCC(=O)NCCN	4 (≈ 13.4 µM)	16 (≈ 53.6 µM)	8 (≈ 26.8 µM)	4 (≈ 13.4 µM)	> 1020	> 1020	> 1020	> 1020	–	–	–	–	–	–	–	–	–	–	–	–	–
